Where “and” joins values, the source holds several entries; their conditions need not be identical. Equal values may be shown once.
Columns and labels:
[1] = Stability constant (K) from thermodynamic parameters of ITC analysis; assay type: physicochemical; details: calculated from ΔG of ITC analysis
Description: A stability constant (formation constant, binding constant) is an equilibrium constant for the formation of a complex in solution. It is a measure of the strength of the interaction between the reagents that come together to form the complex. The thermodynamics of metal ion complex formation provides much significant information. The chelate effect, below, is best explained in terms of thermodynamics. An equilibrium constant is related to the standard Gibbs free energy change for the reaction.

[2] = ITC analysis of Ca^2+ binding to phytate; details: Ca^2+ stronger than Mg^2+
[3] = ITC analysis of Gd^3+ binding to EDTA; details: higher affinity than EDTA

Compound	Stability Constant (K) [1]	binding affinity for Ca^2+ relative to Mg^2+ [2]	affinity for Gd^3+ relative to EDTA [3]
O=C([O-])CN1CCN(CC(=O)[O-])CCN(CC(=O)O)CCN(CC(=O)[O-])CC1.[Gd+3] [Gd-DOTA]	1.3e+29 M⁻¹		
O=C([O-])CN(CCN(CC(=O)[O-])CC(=O)O)CCN(CC(=O)[O-])CC(=O)O.[Gd+3] [Gd-DTPA]	1.2e+28 M⁻¹		
O=C([O-])CN(CCN(CC(=O)[O-])CC(=O)[O-])CC(=O)[O-].[Gd+3] [Gd-EDTA]	4.4e+29 M⁻¹		
O=P(O)(O)OC1C(OP(=O)(O)O)C(OP(=O)(O)O)C(OP(=O)(O)O)C(OP(=O)(O)O)C1OP(=O)(O)O (centres unmarked) [phytate]		100 fold	10 fold and 10- to 100 fold
